Test results taken from patent US20080051379A1, “Compositions and Methods for the Treatment of Peripheral B-Cell Neoplasms” (Trustees of Boston University, priority 2004, published 2008).

Key:
[1] = test system: PDE4; details: cited from earlier work
[2] = test system: PDE4A, PDE4B or PDE4D expression in CCRF-CEM cells; assay: Western analysis of PDE4 isoforms, CCRF-CEM cells; type: cell-based, human; details: rolipram
Description: B-CLL and CCRF-CEM cells were incubated for 18 hours with media alone, 10 μM rolipram, 10 μM forskolin (Fsk), 1 μM hydrocortisone (HC), or the same concentration of rolipram combined with 1 μM hydrocortisone (Roli+HC) or 10 μM forskolin (Roli+Fsk). Lysates of the cells were then assessed for expression of PDE4A, PDE4B or PDE4D by Western analysis. Equal loading of samples was verified by immunoblotting for tubulin.
30 million B-CLL cells or 10 million CCRF-CEM cells were incubated for 18 hours in media alone or with the addition of drugs as indicated in the text. Western analysis was then carried out as previously described^30.

[3] = test system: glucocorticoid-sensitive subclone (CEM-S2); assay: MTS cell survival assay, CEM-S2; type: cell-based, human; details: dexamethasone-sensitive CCRF-CEM cells; 10 μM, 72 hours
Description: In FIG. 5A, the polyclonal parental cell line (CCRF-CEM), the single cell-derived glucocorticoid-resistant subclone (CEM-R8) and the single cell-derived glucocorticoid-sensitive subclone (CEM-S2) were cultured for 72 hours in the presence of vehicle (ETOH) or dexamethasone at the concentrations indicated and cell viability was assessed by the MTS assay as described in Methods. In FIG. 5B, the glucocorticoid-resistant subclone (CEM-R8) and the glucocorticoid-sensitive subclone (CEM-S2) were cultured for 72 hours in the presence of hydrocortisone (HC) (10 μM HC for the CEM-R8 cells and 1 μM HC for the CEM-S2 cells), 10 μM forskolin (Fsk), 10 μM rolipram (Rol), or combinations of these agents as indicated, and cell viability was assessed by the MTS assay as described in Methods. FIG. 5C: The glucocorticoid-resistant subclone (CEM-R8) and the glucocorticoid-sensitive subclone (CEM-S2) were cultured for 72 hours in the presence of varying amounts of dibutyryl cAMP (db-cAMP) in the absence (−HC) or presence (+HC) of 1 μM hydrocortisone as indicated, and cell viability was assessed by the MTS assay as described in Methods. The data shown were normalized to the vehicle control. Results represent the mean±SD of triplicate determinations.
(§1) CCRF-CEM cells were obtained from ATCC^27. Leukemic or normal mononuclear cells were obtained by centrifugation over Histopaque 1077 (Sigma Chemical Company, St. Louis, Mo.). For purification of T cells, whole mononuclear cells from normal subjects were incubated with magnetic beads coated with appropriate antibodies, then positively purified using a magnet (Miltenyi). […]
(§2) Hoechst 33342 and DiOC6(3) apoptosis assays were performed as previously described^22,28. […] The absorbance (O.D.) of the formazan product was determined at 492 nm using a plate reader (Titertek Multiscan Plus, Labsystems). Percent cell viability was calculated as follows: (O.D. control sample−O.D. blank)/(O.D. test sample−O.D. blank)×100. […]

[4] = test system: CD3+ CD4+ Sezary cells; assay: Hoechst 33342 apoptosis assay, Sezary cells; type: cell-based, human; details: 10 μM rolipram or 1 μM hydrocortisone; one patient
Description: (§3) Magnetic bead purified peripheral blood T cells or leukemic cells from patients with B-CLL or Sezary syndrome were cultured in media alone or with a dose titration of hydrocortisone (solid line), followed by assessment for apoptosis by Hoechst 33342 FACS analysis at 48 hours. Using the same experimental conditions, the effect of addition of 10 μM rolipram (thick dashed line) or 10 μM rolipram and 40 μM forskolin (dotted line) was also assessed. The SEM of triplicate samples is shown; where not visible, the SEM was less than 1.0%.
as §1, §2

[5] = test system: peripheral blood T cells; assay: Hoechst 33342 apoptosis assay, peripheral blood T cells; type: cell-based, human; details: 10 μM rolipram
Description: as §3, §1, §2

## COc1ccc(C2CNC(=O)C2)cc1OC1CCCC1 (stereo not drawn) [rolipram, 4-(3-cyclopentyloxy-4-methoxyphenyl)-2-pyrrolidone]
[1]
  IC50: […]
[2]
  induction of PDE4 isoforms: nor induced any PDE4 isoform
[3]
  effect on cell viability as single agent: no discernable effect
[4]
  apoptotic effect used separately on Sezary leukemic cells: little effect
[5]
  augmentation of the apoptotic effect of 1 μM hydrocortisone on T cells: failed to augment
  induction of apoptosis in peripheral blood T cells: failed to induce apoptosis
